Reference: PubChem BioAssay (NCI)
Several values for one entry are separate records, joined by “and”; a condition that tells them apart may be missing. Identical values can stand only once.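 Compound exposure: 48 hours, 5 concentrations, 96-well plates. GI50 marks 50% less growth. TGI: concentration producing complete growth inhibition.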

Key:
Assay in all cases: NCI-60 cell line screen, 48 h
OVCAR-4 ovarian = system: OVCAR-4 ovarian
LOX IMVI melanoma = system: LOX IMVI melanoma
SK-MEL-2 melanoma = system: SK-MEL-2 melanoma
OVCAR-5 ovarian = system: OVCAR-5 ovarian
SNB-75 CNS = system: SNB-75 CNS
K-562 leukemia = system: K-562 leukemia
HS 578T breast = system: HS 578T breast
SN12C renal = system: SN12C renal
MDA-N = system: MDA-N
HCC-2998 colon = system: HCC-2998 colon

Row | Compound | TGI (OVCAR-4 ovarian) | TGI (LOX IMVI melanoma) | TGI (SK-MEL-2 melanoma) | TGI (OVCAR-5 ovarian) | TGI (SNB-75 CNS) | TGI (K-562 leukemia) | TGI (HS 578T breast) | TGI (SN12C renal) | TGI (MDA-N) | TGI (HCC-2998 colon) [µM] | GI50 (SNB-75 CNS)
1 | CC1(C)OP(=O)(c2ccccc2)C=C1Sc1ccc([N+](=O)[O-])cc1[N+](=O)[O-] (stereo not drawn) | > 100 µM | > 100 µM | > 100 µM | > 100 µM | > 100 µM | 67.3 µM | > 100 µM | > 100 µM | > 100 µM | – | –
2 | COc1ccccc1NC(=O)C1=C(C)NC(C)=C(C(=O)Nc2ccccc2OC)C1c1ccccc1[N+](=O)[O-] | 46.3 µM | 33.2 µM | 26 µM | 85.4 µM | > 100 µM | 65 µM | – | 37.4 µM | – | 33 | –
3 | COc1ccc2[nH]c3c(c2c1)[C@H](c1ccccc1)C[C@@H]1C(=O)N(c2ccccc2)C(=O)[C@H]31 | 31 µM | > 100 µM | > 100 µM | > 100 µM | 40.1 µM | > 100 µM | – | 33.3 µM | – | > 100 | –
4 | Cc1ccc(C(=O)CC2(O)C(=O)Nc3c(C)cc(Cl)cc32)cc1 (stereo not drawn) | > 100 µM | > 100 µM | > 100 µM | > 100 µM | > 100 µM | > 100 µM | – | > 100 µM | – | > 100 | –
5 | CO/C(N)=C(\C#N)N=Cc1ccc2ccccc2c1 | – | > 100 µM | > 100 µM | – | > 100 µM | 94.6 µM | > 100 µM | > 100 µM | > 100 µM | – | –
6 | CC1=CC2C(C=C1)S(=O)(=O)N1CC21c1ccccc1 (stereo not drawn) | – | > 100 µM | > 100 µM | > 100 µM | > 100 µM | > 100 µM | – | > 100 µM | – | > 100 | –
7 | COc1ccc(C2=Nc3c(nc(OC)[nH]c3=O)NC(c3ccccc3)C2)cc1 (stereo not drawn) | – | 70.3 µM | > 100 µM | > 100 µM | 58.5 µM | 73.1 µM | – | 62.6 µM | 64.5 µM | – | –
8 | CSc1ncnc2c1cnn2Cc1cnnn1COCC(O)CO (stereo not drawn) | > 100 µM | > 100 µM | > 100 µM | > 100 µM | – | > 100 µM | – | > 100 µM | > 100 µM | > 100 | –
9 | COc1ccc(/C=c2\c(=O)[nH]c3nc4ccccc4c(=O)n23)cc1 | > 100 µM | > 100 µM | > 100 µM | > 100 µM | > 100 µM | – | > 100 µM | > 100 µM | – | > 100 | –
10 | N#CC(NNC(=O)Cc1ccccc1)c1cccc(O)c1 (stereo not drawn) | > 100 µM | > 100 µM | > 100 µM | > 100 µM | > 100 µM | > 100 µM | – | > 100 µM | – | – | –
11 | CCOC(=O)c1c2ccc(/C=C/c3ccccn3)ccc-2c(C(=O)OCC)c1N | > 100 µM | > 100 µM | > 100 µM | > 100 µM | > 100 µM | > 100 µM | – | – | – | > 100 | –
12 | O=Cc1c[nH]c2c(=O)[nH]cnc12 | – | > 100 µM | > 100 µM | – | > 100 µM | > 100 µM | – | > 100 µM | – | > 100 | –
13 | Cc1cc2ncn(-c3nc4ccccc4nc3C(C#N)S(C)(=O)=O)c2cc1C (stereo not drawn) | > 100 µM | > 100 µM | > 100 µM | > 100 µM | > 100 µM | > 100 µM | – | > 100 µM | – | > 100 | –
14 | O=C(O)c1nc2ccccc2nc1Nc1ccc(Cl)c(Cl)c1 | – | > 100 µM | – | > 100 µM | > 100 µM | > 100 µM | – | > 100 µM | > 100 µM | 73.5 | –
15 | Nc1nc(NNc2cccc(F)c2)cc(=O)[nH]1 | > 100 µM | 43.2 µM | – | > 100 µM | – | 74 µM | > 100 µM | > 100 µM | – | > 100 | –
16 | Nc1nc2c(N)cc(C(F)(F)F)cc2nc1-c1ccccc1 | > 100 µM | > 100 µM | > 100 µM | > 100 µM | 93.5 µM | > 100 µM | – | > 100 µM | – | > 100 | –
17 | CC(=O)OI1NC(=O)c2ccccc21 | > 100 µM | > 100 µM | > 100 µM | > 100 µM | > 100 µM | > 100 µM | > 100 µM | > 100 µM | > 100 µM | – | –
18 | O=C(Cc1ccccc1)NN1C(=O)C(Cl)C1c1ccccc1Cl (stereo not drawn) | > 100 µM | > 59.5 µM | > 100 µM | > 100 µM | > 100 µM | > 100 µM | – | > 100 µM | – | > 100 | –
19 | C=CCCC1(O)C(O)C(CO)O[C@H](O[C@@]2(CO)OC(CO)C(O)C2O)C1O (stereo partly drawn) | > 100 µM | > 100 µM | – | > 100 µM | > 100 µM | > 100 µM | – | > 100 µM | – | – | –
20 | Brc1ccc(C2C3CSc4ccccc4C3=NN2c2ccccc2)cc1 (stereo not drawn) | 91.7 µM | > 100 µM | > 100 µM | – | > 100 µM | > 100 µM | > 100 µM | > 100 µM | > 100 µM | – | –

Row | Compound | TGI (OVCAR-4 ovarian) | TGI (LOX IMVI melanoma) | TGI (SK-MEL-2 melanoma) | TGI (OVCAR-5 ovarian) | TGI (SNB-75 CNS) | TGI (K-562 leukemia) | TGI (HS 578T breast) | TGI (SN12C renal) | TGI (MDA-N) | TGI (HCC-2998 colon) [µM] | GI50 (SNB-75 CNS)
21 | Clc1ccc(Nc2nnc(CNc3ccc(-c4nnc(Nc5ccc(Cl)cc5)s4)cc3)s2)cc1 | > 100 µM | – | 67.6 µM | > 100 µM | > 100 µM | > 100 µM | – | > 100 µM | 58.1 µM | 48.9 | –
22 | COc1ccc(Nc2nc3ccccc3n3cccc23)cc1OC | – | 27.4 µM | 33.3 µM | > 100 µM | – | > 100 µM | > 100 µM | – | 29.4 µM | 27.6 | –
23 | CC(C)N(C(=O)C12C3C4C1C1C2C3C41C#N)C(C)C (stereo not drawn) | > 100 µM | > 67.2 µM | > 100 µM | > 100 µM | > 100 µM | > 100 µM | – | > 100 µM | – | > 100 | –
24 | CCOc1ccccc1N=Nc1ccc2oc(=O)c(C(C)=O)cc2c1 | > 100 µM | > 100 µM | > 100 µM | > 100 µM | 43.2 µM | > 100 µM | – | > 100 µM | – | > 100 | –
25 | COc1cc2c(c(OC)c1OC)-c1ccc(SC)c(=O)cc1[C@@H](NCc1ccc(F)cc1)CC2 | > 100 µM | 11.9 µM and 13.5 µM | – | 75 µM and > 100 µM | – | 75 µM and > 100 µM | – | 20.8 µM | – | 11.3 | –
26 | COCC(C)(C)N=CN1Cc2cc3ccccc3nc2C1 | > 100 µM | – | > 100 µM | – | > 100 µM | > 100 µM | – | > 100 µM | – | – | –
27 | CCCCCCCC/C=C1\CCC(CN(C)C)C1=O (stereo not drawn) | 29.1 µM | 4.09 µM | 24.6 µM | 35.5 µM | 14.1 µM | 7.2 µM | – | 14.6 µM | – | 22 | –
28 | O=C1NC2NC3NC(=O)NC3NC2N1 (stereo not drawn) | – | > 100 µM | > 100 µM | > 100 µM | > 100 µM | > 100 µM | – | > 100 µM | > 100 µM | – | –
29 | COC(=O)C(=O)C(C(=O)OC)C(=O)C(=O)Nc1c(C)cccc1C (stereo not drawn) | > 100 µM | > 100 µM | > 100 µM | > 100 µM | > 100 µM | > 100 µM | – | > 100 µM | – | > 100 | –
30 | Cc1c(C)c2c(c(N)c1C#N)C(=O)N(O)C2=O | > 100 µM | – | > 100 µM | > 100 µM | > 100 µM | > 100 µM | > 100 µM | > 100 µM | – | > 100 | –
31 | CC(=O)Nc1[nH]n(C)c(=O)c1-c1nnc(C)s1 | > 100 µM | > 100 µM | > 100 µM | > 100 µM | > 100 µM | > 100 µM | – | > 100 µM | – | > 100 | –
32 | Cc1ccc(NC(=O)CCCC(=O)CC(=O)c2ccc(Br)cc2)cc1 | > 100 µM | > 100 µM | > 100 µM | > 100 µM | > 100 µM | > 100 µM | – | > 100 µM | – | > 100 | –
33 | CC1=C(c2nc3ccccc3s2)C(=O)OC1(C)C | > 100 µM | > 100 µM | > 100 µM | > 100 µM | > 100 µM | > 100 µM | – | > 100 µM | – | > 100 | –
34 | CN(C)c1ccc(/C=C/C(=O)c2ccc(O)cc2)cc1 | > 100 µM | 45.1 µM | > 49.1 µM | > 100 µM | > 42.7 µM | 8.38 µM | > 69.7 µM | > 100 µM | – | 38.1 | –
35 | CC1=CC(=O)CC2(C)CCC(C(C)CC(=O)CC(C)C)CC12OO (stereo not drawn) | 29.8 µM and > 100 µM | 31.5 µM and 27.9 µM | 37.9 µM and 31.9 µM | 35.5 µM and 47.5 µM | 44.9 µM and > 100 µM | 75 µM and 31.9 µM | 88.3 µM and > 100 µM | 38 µM and 33.8 µM | 34.7 µM and 33.4 µM | – | 19.8 µM and 55.7 µM
36 | [N-]=[N+]=Nc1ccccc1-c1ccccc1[N+](=O)[O-] | > 100 µM | > 100 µM | > 100 µM | > 100 µM | > 100 µM | > 100 µM | > 100 µM | > 100 µM | > 100 µM | – | –
37 | CC(C)c1cccc(C(C)C)c1NC(=O)C(=O)Cc1nc2ccc([N+](=O)[O-])cc2[nH]c1=O | > 100 µM | > 100 µM | > 100 µM | > 100 µM | > 100 µM | > 100 µM | – | – | – | > 100 | –
38 | Cc1c(O)c(=O)ccn1CCN | > 100 µM | > 100 µM | > 100 µM | > 100 µM | > 100 µM | > 100 µM | – | > 100 µM | – | > 100 | –
39 | N#CCCn1[nH]c(=O)c(Cl)c(Cl)c1=O | 32 µM | 28.3 µM | 29.6 µM | 32.8 µM | 26.7 µM | 28.1 µM | – | 32.5 µM | – | 26 | –
40 | C1CNOCCCONCCCNOCCCONC1 | > 100 µM | > 100 µM | > 100 µM | > 100 µM | > 100 µM | > 100 µM | > 100 µM | > 100 µM | > 100 µM | – | –
